Test results as given in the supplement of paper PMC10307832.

Experiments:
Assay in all cases: relative viability (nuclei count vs DMSO), 5 days (fraction); higher = more cells survive
Quizartinib + Lapatinib = compound: CC(C)(C)c1cc(NC(=O)Nc2ccc(-c3cn4c(n3)sc3cc(OCCN5CCOCC5)ccc34)cc2)no1 [Quizartinib] + CS(=O)(=O)CCNCc1ccc(-c2ccc3ncnc(Nc4ccc(OCc5cccc(F)c5)c(Cl)c4)c3c2)o1 [Lapatinib] (partner 2 µM)
How it was run: (§1)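 Lung cancer cell lines were pin-tool dosed in 1536-well plates on the day after seeding, with either a lone drug or a fixed anchor-drug dose plus five library-drug doses (not always all listed) in √10 steps. Nuclei were counted on 4× images after 5 days. Relative viability is the ratio of treated-well to vehicle-well nuclei counts, with each value a median of duplicate plates.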

YM155 + Tozasertib = compound: COCC[n+]1c2c(n(Cc3cnccn3)c1C)C(=O)c1ccccc1C2=O [YM155] + Cc1cc(Nc2cc(N3CCN(C)CC3)nc(Sc3ccc(NC(=O)C4CC4)cc3)n2)n[nH]1 [Tozasertib] (partner 0.1 µM)
How it was run: as §1

YM155 + Alpelisib = compound: COCC[n+]1c2c(n(Cc3cnccn3)c1C)C(=O)c1ccccc1C2=O [YM155] + Cc1nc(NC(=O)N2CCC[C@H]2C(N)=O)sc1-c1ccnc(C(C)(C)C(F)(F)F)c1 [Alpelisib] (partner 2 µM)
How it was run: as §1

YM155 + Olaparib = compound: COCC[n+]1c2c(n(Cc3cnccn3)c1C)C(=O)c1ccccc1C2=O [YM155] + O=C(c1cc(Cc2n[nH]c(=O)c3ccccc23)ccc1F)N1CCN(C(=O)C2CC2)CC1 [Olaparib] (partner 8 µM)
How it was run: as §1

SK-MES-1
relative viability (Quizartinib + Lapatinib; first compound 0.001 µM): 0.464
relative viability (Quizartinib + Lapatinib; first compound 0.003162 µM): 0.428
relative viability (Quizartinib + Lapatinib; first compound 0.01 µM): 0.421
relative viability (Quizartinib + Lapatinib; first compound 0.03162 µM): 0.428
relative viability (Quizartinib + Lapatinib; first compound 0.1 µM): 0.442
relative viability (YM155 + Tozasertib; first compound 0.002 µM): 0.853
relative viability (YM155 + Tozasertib; first compound 0.006325 µM): 0.866
relative viability (YM155 + Tozasertib; first compound 0.02 µM): 0.483
relative viability (YM155 + Tozasertib; first compound 0.06325 µM): 0.267
relative viability (YM155 + Alpelisib; first compound 0.002 µM): 0.823
relative viability (YM155 + Alpelisib; first compound 0.006325 µM): 0.905
relative viability (YM155 + Alpelisib; first compound 0.02 µM): 1.05
relative viability (YM155 + Alpelisib; first compound 0.06325 µM): 0.715
relative viability (YM155 + Olaparib; first compound 0.002 µM): 0.707
relative viability (YM155 + Olaparib; first compound 0.006325 µM): 0.574
relative viability (YM155 + Olaparib; first compound 0.02 µM): 0.258
relative viability (YM155 + Olaparib; first compound 0.06325 µM): 0.189

NCI-H1975
relative viability (Quizartinib + Lapatinib; first compound 0.001 µM): 0.746
relative viability (Quizartinib + Lapatinib; first compound 0.003162 µM): 0.894
relative viability (Quizartinib + Lapatinib; first compound 0.01 µM): 0.847
relative viability (Quizartinib + Lapatinib; first compound 0.03162 µM): 0.864
relative viability (Quizartinib + Lapatinib; first compound 0.1 µM): 1.18
relative viability (YM155 + Tozasertib; first compound 0.002 µM): 0.715
relative viability (YM155 + Tozasertib; first compound 0.006325 µM): 0.704
relative viability (YM155 + Tozasertib; first compound 0.02 µM): 0.859
relative viability (YM155 + Tozasertib; first compound 0.06325 µM): 0.163
relative viability (YM155 + Alpelisib; first compound 0.002 µM): 0.627
relative viability (YM155 + Alpelisib; first compound 0.006325 µM): 0.665
relative viability (YM155 + Alpelisib; first compound 0.02 µM): 0.581
relative viability (YM155 + Alpelisib; first compound 0.06325 µM): 0.549
relative viability (YM155 + Olaparib; first compound 0.002 µM): 0.717
relative viability (YM155 + Olaparib; first compound 0.006325 µM): 0.756
relative viability (YM155 + Olaparib; first compound 0.02 µM): 0.767
relative viability (YM155 + Olaparib; first compound 0.06325 µM): 0.189

HCC-78
relative viability (Quizartinib + Lapatinib; first compound 0.001 µM): 0.869
relative viability (Quizartinib + Lapatinib; first compound 0.003162 µM): 0.901
relative viability (Quizartinib + Lapatinib; first compound 0.01 µM): 0.576
relative viability (Quizartinib + Lapatinib; first compound 0.03162 µM): 0.702
relative viability (Quizartinib + Lapatinib; first compound 0.1 µM): 0.703
relative viability (YM155 + Tozasertib; first compound 0.002 µM): 0.442
relative viability (YM155 + Tozasertib; first compound 0.006325 µM): 0.454
relative viability (YM155 + Tozasertib; first compound 0.02 µM): 0.52
relative viability (YM155 + Tozasertib; first compound 0.06325 µM): 0.498
relative viability (YM155 + Alpelisib; first compound 0.002 µM): 0.341
relative viability (YM155 + Alpelisib; first compound 0.006325 µM): 0.436
relative viability (YM155 + Alpelisib; first compound 0.02 µM): 0.361
relative viability (YM155 + Alpelisib; first compound 0.06325 µM): 0.438
relative viability (YM155 + Olaparib; first compound 0.002 µM): 0.882
relative viability (YM155 + Olaparib; first compound 0.006325 µM): 0.865
relative viability (YM155 + Olaparib; first compound 0.02 µM): 0.807
relative viability (YM155 + Olaparib; first compound 0.06325 µM): 1

H3255
relative viability (Quizartinib + Lapatinib; first compound 0.001 µM): 0.264
relative viability (Quizartinib + Lapatinib; first compound 0.003162 µM): 0.238
relative viability (Quizartinib + Lapatinib; first compound 0.01 µM): 0.212
relative viability (Quizartinib + Lapatinib; first compound 0.03162 µM): 0.28
relative viability (Quizartinib + Lapatinib; first compound 0.1 µM): 0.241
relative viability (YM155 + Tozasertib; first compound 0.002 µM): 0.68
relative viability (YM155 + Tozasertib; first compound 0.006325 µM): 0.59
relative viability (YM155 + Tozasertib; first compound 0.02 µM): 0.616
relative viability (YM155 + Tozasertib; first compound 0.06325 µM): 0.351
relative viability (YM155 + Alpelisib; first compound 0.002 µM): 0.707
relative viability (YM155 + Alpelisib; first compound 0.006325 µM): 0.658
relative viability (YM155 + Alpelisib; first compound 0.02 µM): 0.714
relative viability (YM155 + Alpelisib; first compound 0.06325 µM): 0.682
relative viability (YM155 + Olaparib; first compound 0.002 µM): 0.577
relative viability (YM155 + Olaparib; first compound 0.006325 µM): 0.581
relative viability (YM155 + Olaparib; first compound 0.02 µM): 0.578
relative viability (YM155 + Olaparib; first compound 0.06325 µM): 0.508

NCI-H1299
relative viability (Quizartinib + Lapatinib; first compound 0.001 µM): 0.983
relative viability (Quizartinib + Lapatinib; first compound 0.003162 µM): 0.932
relative viability (Quizartinib + Lapatinib; first compound 0.01 µM): 0.956
relative viability (Quizartinib + Lapatinib; first compound 0.03162 µM): 0.922
relative viability (Quizartinib + Lapatinib; first compound 0.1 µM): 0.903
relative viability (YM155 + Alpelisib; first compound 0.002 µM): 0.993
relative viability (YM155 + Alpelisib; first compound 0.006325 µM): 1.01
relative viability (YM155 + Alpelisib; first compound 0.02 µM): 1.05
relative viability (YM155 + Alpelisib; first compound 0.06325 µM): 1.07
relative viability (YM155 + Olaparib; first compound 0.002 µM): 1
relative viability (YM155 + Olaparib; first compound 0.006325 µM): 0.998
relative viability (YM155 + Olaparib; first compound 0.02 µM): 0.971
relative viability (YM155 + Olaparib; first compound 0.06325 µM): 0.875

NCI-H441
relative viability (YM155 + Tozasertib; first compound 0.002 µM): 0.559
relative viability (YM155 + Tozasertib; first compound 0.006325 µM): 0.63
relative viability (YM155 + Tozasertib; first compound 0.02 µM): 0.645
relative viability (YM155 + Tozasertib; first compound 0.06325 µM): 0.467
relative viability (YM155 + Alpelisib; first compound 0.002 µM): 0.733
relative viability (YM155 + Alpelisib; first compound 0.006325 µM): 0.644
relative viability (YM155 + Alpelisib; first compound 0.02 µM): 0.567
relative viability (YM155 + Alpelisib; first compound 0.06325 µM): 0.429
relative viability (YM155 + Olaparib; first compound 0.002 µM): 0.597
relative viability (YM155 + Olaparib; first compound 0.006325 µM): 0.524
relative viability (YM155 + Olaparib; first compound 0.02 µM): 0.518
relative viability (YM155 + Olaparib; first compound 0.06325 µM): 0.299

NCI-H1755
relative viability (Quizartinib + Lapatinib; first compound 0.001 µM): 0.909
relative viability (Quizartinib + Lapatinib; first compound 0.003162 µM): 0.98
relative viability (Quizartinib + Lapatinib; first compound 0.01 µM): 1.1
relative viability (Quizartinib + Lapatinib; first compound 0.03162 µM): 1.07
relative viability (Quizartinib + Lapatinib; first compound 0.1 µM): 1.04
relative viability (YM155 + Tozasertib; first compound 0.002 µM): 0.51
relative viability (YM155 + Tozasertib; first compound 0.006325 µM): 0.584
relative viability (YM155 + Tozasertib; first compound 0.02 µM): 0.603
relative viability (YM155 + Tozasertib; first compound 0.06325 µM): 0.54
relative viability (YM155 + Alpelisib; first compound 0.002 µM): 0.892
relative viability (YM155 + Alpelisib; first compound 0.006325 µM): 0.926
relative viability (YM155 + Alpelisib; first compound 0.02 µM): 0.973
relative viability (YM155 + Alpelisib; first compound 0.06325 µM): 1.02
relative viability (YM155 + Olaparib; first compound 0.002 µM): 0.848
relative viability (YM155 + Olaparib; first compound 0.006325 µM): 0.853
relative viability (YM155 + Olaparib; first compound 0.02 µM): 0.855
relative viability (YM155 + Olaparib; first compound 0.06325 µM): 0.913

LCLC-97TM1
relative viability (Quizartinib + Lapatinib; first compound 0.003162 µM): 0.862
relative viability (Quizartinib + Lapatinib; first compound 0.01 µM): 0.527
relative viability (Quizartinib + Lapatinib; first compound 0.03162 µM): 0.848
relative viability (Quizartinib + Lapatinib; first compound 0.1 µM): 1.43
relative viability (YM155 + Tozasertib; first compound 0.002 µM): 0.197
relative viability (YM155 + Tozasertib; first compound 0.006325 µM): 0.202
relative viability (YM155 + Tozasertib; first compound 0.02 µM): 0.227
relative viability (YM155 + Tozasertib; first compound 0.06325 µM): 0.22
relative viability (YM155 + Alpelisib; first compound 0.002 µM): 0.297
relative viability (YM155 + Alpelisib; first compound 0.006325 µM): 0.228
relative viability (YM155 + Alpelisib; first compound 0.02 µM): 0.272
relative viability (YM155 + Alpelisib; first compound 0.06325 µM): 0.328
relative viability (YM155 + Olaparib; first compound 0.006325 µM): 0.321
relative viability (YM155 + Olaparib; first compound 0.02 µM): 0.311
relative viability (YM155 + Olaparib; first compound 0.06325 µM): 0.376

NCI-H2085
relative viability (Quizartinib + Lapatinib; first compound 0.001 µM): 0.733
relative viability (Quizartinib + Lapatinib; first compound 0.003162 µM): 0.769
relative viability (Quizartinib + Lapatinib; first compound 0.01 µM): 0.851
relative viability (Quizartinib + Lapatinib; first compound 0.03162 µM): 0.809
relative viability (Quizartinib + Lapatinib; first compound 0.1 µM): 0.742
relative viability (YM155 + Tozasertib; first compound 0.002 µM): 0.794
relative viability (YM155 + Tozasertib; first compound 0.006325 µM): 0.804
relative viability (YM155 + Tozasertib; first compound 0.02 µM): 0.867
relative viability (YM155 + Tozasertib; first compound 0.06325 µM): 0.77
relative viability (YM155 + Alpelisib; first compound 0.002 µM): 0.955
relative viability (YM155 + Alpelisib; first compound 0.006325 µM): 0.833
relative viability (YM155 + Alpelisib; first compound 0.02 µM): 0.731
relative viability (YM155 + Alpelisib; first compound 0.06325 µM): 0.559
relative viability (YM155 + Olaparib; first compound 0.002 µM): 0.737
relative viability (YM155 + Olaparib; first compound 0.006325 µM): 0.755
relative viability (YM155 + Olaparib; first compound 0.02 µM): 0.805
relative viability (YM155 + Olaparib; first compound 0.06325 µM): 0.516

BEN
relative viability (Quizartinib + Lapatinib; first compound 0.001 µM): 0.473
relative viability (Quizartinib + Lapatinib; first compound 0.003162 µM): 0.661
relative viability (Quizartinib + Lapatinib; first compound 0.01 µM): 0.579
relative viability (Quizartinib + Lapatinib; first compound 0.03162 µM): 0.667
relative viability (Quizartinib + Lapatinib; first compound 0.1 µM): 0.747
relative viability (YM155 + Tozasertib; first compound 0.002 µM): 0.565
relative viability (YM155 + Tozasertib; first compound 0.006325 µM): 0.518
relative viability (YM155 + Tozasertib; first compound 0.02 µM): 0.587
relative viability (YM155 + Tozasertib; first compound 0.06325 µM): 0.581
relative viability (YM155 + Alpelisib; first compound 0.002 µM): 1.1
relative viability (YM155 + Alpelisib; first compound 0.006325 µM): 1.06
relative viability (YM155 + Alpelisib; first compound 0.02 µM): 0.965
relative viability (YM155 + Alpelisib; first compound 0.06325 µM): 1.13
relative viability (YM155 + Olaparib; first compound 0.002 µM): 0.994
relative viability (YM155 + Olaparib; first compound 0.006325 µM): 1.06
relative viability (YM155 + Olaparib; first compound 0.02 µM): 1.11
relative viability (YM155 + Olaparib; first compound 0.06325 µM): 1.08
